The results in this text go back to ChEMBL document CHEMBL3132750, “4-Chlorocolchicine derivatives bearing a thiourea side chain at the C-7 position as potent anticancer agents” (Medchemcomm, 2014).

For data set [1], the system named is HCT-116. Kind of data set: Cytotoxicity against human HCT116 cells assessed as inhibition of cell proliferation after 96 hrs. In kind it is functional, cell-based. To be noted: HCT-116, 96 h.
Data set [2] relates to HT-29. As to the kind of experiment: Cytotoxicity against human HT-29 cells assessed as inhibition of cell proliferation after 96 hrs. In kind it is functional, cell-based. To be noted: HT-29, 96 h.
For data set [3], the system named is A549. As to the kind of experiment: Cytotoxicity against human A549 cells assessed as inhibition of cell proliferation after 96 hrs. The note with it: A549, 96 h. In kind it is functional, cell-based.
Data set [4] in a line: Metabolic stability in BALB/c mouse hepatic microsomes assessed per mg of microsomal protein at 1 umol/L preincubated for 5 mins by LC-MS/MS method. In kind it is ADME, Liver, Microsome. The note with it: 1 µM.

pIC50: −log10 of the molar value.

For the compound `COc1ccc(NC(=S)N[C@H]2CCc3c(Cl)c(OC)c(OC)c(OC)c3-c3ccc(OC)c(=O)cc32)cc1`, the pIC50 is 8.85 in data set [1], 9.52 in data set [2] and 8.10 in data set [3].
Take `COc1c(Cl)c2c(c(OC)c1OC)-c1ccc(OC)c(=O)cc1[C@@H](NC(=O)Nc1ccccc1)CC2`: the pIC50 in data set [1] is 7.44; in data set [2], 7.45; in data set [3] it was 7.32.
`COc1c(Cl)c2c(c(OC)c1OC)-c1ccc(OC)c(=O)cc1[C@@H](NC(=S)Nc1ccccc1)CC2`: the pIC50 is 8.92 in data set [1], 9.40 in data set [2] and 7.61 in data set [3].
`COc1c(Cl)c2c(c(OC)c1OC)-c1ccc(OC)c(=O)cc1[C@@H](NC(=S)Nc1ncn(C)n1)CC2`: the pIC50 in data set [1] was 8.06; in data set [2], 8.22; in data set [3] it was 7.46.
Consider `COc1c(Cl)c2c(c(OC)c1OC)-c1ccc(OC)c(=O)cc1[C@@H](NC(=S)Nc1ncnn1C)CC2`, for which the pIC50 in data set [1] was 7.47; in data set [2], 7.74; in data set [3], 7.39.
`COc1c(Cl)c2c(c(OC)c1OC)-c1ccc(OC)c(=O)cc1[C@@H](NC(=S)N1CCCC1)CC2`: the values for the negative-log IC50 (pIC50) in data set [1], in data set [2] and in data set [3] were 8.14, 8.12 and 7.91, respectively.
For `COc1ccccc1NC(=S)N[C@H]1CCc2c(Cl)c(OC)c(OC)c(OC)c2-c2ccc(OC)c(=O)cc21`, the results for the pIC50 in data set [1], in data set [2] and in data set [3] were 7.53, 7.82 and 7.11, respectively.
For `COc1c(Cl)c2c(c(OC)c1OC)-c1ccc(OC)c(=O)cc1[C@@H](NS(=O)(=O)C(C)C)CC2` the same measures were 7.39, 7.37 and 7.35.
`COc1c(Cl)c2c(c(OC)c1OC)-c1ccc(OC)c(=O)cc1[C@@H](NC(=S)Nc1nc[nH]n1)CC2`: the Intrinsic clearance in data set [4] was found to be 88 µL/min/mg. Also, the pIC50 in data set [1] is 9.52; in data set [2], 9.70; in data set [3], 9.30.
Take `CNC(=S)N[C@H]1CCc2c(Cl)c(OC)c(OC)c(OC)c2-c2ccc(OC)c(=O)cc21`: the pIC50 was 8.20 in data set [1], 8.55 in data set [2] and 7.96 in data set [3].
On to `COc1c(Cl)c2c(c(OC)c1OC)-c1ccc(OC)c(=O)cc1[C@@H](NC(=S)N(C)C)CC2`, for which the pIC50 in data set [1] is 8.08; in data set [2] it was 8.06; in data set [3], 7.97.
`CCN(CC)C(=O)N[C@H]1CCc2c(Cl)c(OC)c(OC)c(OC)c2-c2ccc(OC)c(=O)cc21` showed an Intrinsic clearance in data set [4] of 21 µL/min/mg. The results for the pIC50 in data set [1], in data set [2] and in data set [3] were 7.35, 7.36 and 7.32, respectively.
As for `CCNC(=O)N[C@H]1CCc2c(Cl)c(OC)c(OC)c(OC)c2-c2ccc(OC)c(=O)cc21`, the pIC50 in data set [1] was 6.87; in data set [2], 7.09; in data set [3], 6.61.
For `COc1c(Cl)c2c(c(OC)c1OC)-c1ccc(OC)c(=O)cc1[C@@H](NC(=O)N(C)C)CC2` the same measures were 7.30, 7.27 and 6.72.
As to `COc1c(OC)c2c(c(C(F)(F)F)c1OC)CC[C@H](NC(C)=O)c1cc(=O)c(OC)ccc1-2`, the pIC50 is 7.42 in data set [1], 7.46 in data set [2] and 7.26 in data set [3].
With `COc1c(Cl)c2c(c(OC)c1OC)-c1ccc(OC)c(=O)cc1[C@@H](NC(=S)N1CCC1)CC2`, the figures for the pIC50 in data set [1], in data set [2] and in data set [3] were 8.08, 8.24 and 7.48, respectively.
With `COc1c(Cl)c2c(c(OC)c1OC)-c1ccc(OC)c(=O)cc1[C@@H](NC(=S)Nc1nc(C)cs1)CC2`, the values for the pIC50 in data set [1], in data set [2] and in data set [3] were 8.62, 9.40 and 8.12, respectively.
Take `COc1c(Cl)c2c(c(OC)c1OC)-c1ccc(OC)c(=O)cc1[C@@H](NC(=S)Nc1ccccc1C#N)CC2`: the pIC50 in data set [1] was 5.66; in data set [2], 6.06; in data set [3], 5.42.
Regarding `COc1c(CF)c2c(c(OC)c1OC)-c1ccc(OC)c(=O)cc1[C@@H](NC(C)=O)CC2`, the values for the pIC50 in data set [1], in data set [2] and in data set [3] were 5.32, 5.58 and 5.06, respectively.
As for `COc1c(Cl)c2c(c(OC)c1OC)-c1ccc(OC)c(=O)cc1[C@@H](NC(=S)Nc1cc(C)on1)CC2`, the pIC50 in data set [1] was 8.14; in data set [2], 8.25; in data set [3], 7.37.
For the compound `COc1c(Cl)c2c(c(OC)c1OC)-c1ccc(OC)c(=O)cc1[C@@H](NC(=S)Nc1cc[nH]n1)CC2`, in data set [4], the Intrinsic clearance worked out at 188 µL/min/mg. The results for the pIC50 in data set [1], in data set [2] and in data set [3] were 9.05, 9.52 and 8.11, respectively.
With `COc1c(Cl)c2c(c(OC)c1OC)-c1ccc(OC)c(=O)cc1[C@@H](NC(=S)Nc1nccs1)CC2`, the pIC50 was 8.19 in data set [1], 8.96 in data set [2] and 8.00 in data set [3].
In the case of `CCCCCCNC(=S)N[C@H]1CCc2c(Cl)c(OC)c(OC)c(OC)c2-c2ccc(OC)c(=O)cc21`, the pIC50 in data set [1] was 6.77; in data set [2], 6.75; in data set [3], 6.67.
Regarding `CCCCNC(=S)N[C@H]1CCc2c(Cl)c(OC)c(OC)c(OC)c2-c2ccc(OC)c(=O)cc21`, the results for the negative logarithm of the IC50 (pIC50) in data set [1], in data set [2] and in data set [3] were 8.74, 9.00 and 8.13, respectively.
For the compound `COc1c(Cl)c2c(c(OC)c1OC)-c1ccc(OC)c(=O)cc1[C@@H](NC(=S)Nc1cnccn1)CC2`, the pIC50 in data set [1] was 7.48; in data set [2], 7.71; in data set [3], 7.43.
As for `COc1c(Cl)c2c(c(OC)c1OC)-c1ccc(OC)c(=O)cc1[C@@H](NS(=O)(=O)c1ccccc1)CC2`, the negative logarithm of the IC50 (pIC50) is 7.59 in data set [1], 8.06 in data set [2] and 7.43 in data set [3].
For `COc1c(Cl)c2c(c(OC)c1OC)-c1ccc(OC)c(=O)cc1[C@@H](NC(=S)Nc1cccc(C#N)c1)CC2` the same measures were 7.60, 8.17 and 6.90.
Turning to `COc1c(Cl)c2c(c(OC)c1OC)-c1ccc(OC)c(=O)cc1[C@@H](NC(=S)NCCO)CC2`, the pIC50 is 7.05 in data set [1], 7.28 in data set [2] and 6.60 in data set [3].
For `COc1c(Cl)c2c(c(OC)c1OC)-c1ccc(OC)c(=O)cc1[C@@H](NC(N)=S)CC2` the same measures were 8.05, 8.21 and 7.35.
For `COc1c(Cl)c2c(c(OC)c1OC)-c1ccc(OC)c(=O)cc1[C@@H](NC(=S)N1CCCCC1)CC2` the same measures were 8.16, 8.21 and 8.02.
For `COc1c(Cl)c2c(c(OC)c1OC)-c1ccc(OC)c(=O)cc1[C@@H](NC(=S)Nc1ccc(C#N)cc1)CC2`, the figures for the pIC50 in data set [1], in data set [2] and in data set [3] were 7.60, 8.19 and 7.17, respectively.
Consider `COc1c(Cl)c2c(c(OC)c1OC)-c1ccc(OC)c(=O)cc1[C@@H](NC(=S)Nc1cccc(N(C)C)c1)CC2`, for which the pIC50 in data set [1] was 7.62; in data set [2], 8.36; in data set [3], 7.42.
Consider `CCCNC(=S)N[C@H]1CCc2c(Cl)c(OC)c(OC)c(OC)c2-c2ccc(OC)c(=O)cc21`, for which the figures for the pIC50 in data set [1], in data set [2] and in data set [3] were 8.37, 8.80 and 8.00, respectively.
In the case of `COc1c(Cl)c2c(c(OC)c1OC)-c1ccc(OC)c(=O)cc1[C@@H](NC(=S)Nc1ccncc1)CC2`, the pIC50 is 7.47 in data set [1], 7.63 in data set [2] and 6.61 in data set [3].
In the case of `COc1c(Cl)c2c(c(OC)c1OC)-c1ccc(OC)c(=O)cc1[C@@H](NC(=S)Nc1cccnc1)CC2`, the pIC50 in data set [1] is 7.38; in data set [2] it was 7.50; in data set [3], 6.73.
As to `COc1c(Cl)c2c(c(OC)c1OC)-c1ccc(OC)c(=O)cc1[C@@H](NS(=O)(=O)CC(C)C)CC2`, the negative-log IC50 (pIC50) in data set [1] is 7.48; in data set [2] it was 7.44; in data set [3], 7.39.
For `COc1cc2c(c(OC)c1OC)-c1ccc(OC)c(=O)cc1[C@@H](NC(C)=O)CC2` [COLCHICINE], the Intrinsic clearance in data set [4] is 1 µL/min/mg. Also, the pIC50 in data set [1] was 7.97; in data set [2] it was 8.09.
Consider `COc1c(Cl)c2c(c(OC)c1OC)-c1ccc(OC)c(=O)cc1[C@@H](NS(C)(=O)=O)CC2`, for which the pIC50 in data set [1] was 7.43; in data set [2], 7.41; in data set [3] it was 7.34.
In the case of `COc1c(OC)c2c(c(C(F)F)c1OC)CC[C@H](NC(C)=O)c1cc(=O)c(OC)ccc1-2`, the results for the pIC50 in data set [1], in data set [2] and in data set [3] were 7.34, 7.32 and 7.26, respectively.
As to `COc1c(Cl)c2c(c(OC)c1OC)-c1ccc(OC)c(=O)cc1[C@@H](NC(=S)Nc1ccccn1)CC2`, the pIC50 was 7.21 in data set [1], 7.46 in data set [2] and 6.77 in data set [3].
In the case of `COc1c(Cl)c2c(c(OC)c1OC)-c1ccc(OC)c(=O)cc1[C@@H](NC(=S)Nc1cncnc1)CC2`, the figures for the pIC50 in data set [1], in data set [2] and in data set [3] were 6.75, 6.81 and 6.03, respectively.
Turning to `COc1c(Cl)c2c(c(OC)c1OC)-c1ccc(OC)c(=O)cc1[C@@H](NC(=S)N(C)CCO)CC2`, the pIC50 in data set [1] was 7.49; in data set [2], 7.52; in data set [3], 7.35.
As for `CCCN(CCC)C(=S)N[C@H]1CCc2c(Cl)c(OC)c(OC)c(OC)c2-c2ccc(OC)c(=O)cc21`, the pIC50 in data set [1] was 7.46; in data set [2], 7.42; in data set [3], 7.39.
Consider `COc1cccc(NC(=S)N[C@H]2CCc3c(Cl)c(OC)c(OC)c(OC)c3-c3ccc(OC)c(=O)cc32)c1`, for which the pIC50 in data set [1] was 8.85; in data set [2] it was 9.30; in data set [3], 7.63.
For the compound `COc1c(Cl)c2c(c(OC)c1OC)-c1ccc(OC)c(=O)cc1[C@@H](NC(=S)Nc1cccnn1)CC2`, the pIC50 is 7.88 in data set [1], 8.20 in data set [2] and 7.40 in data set [3].
On to `COc1c(Cl)c2c(c(OC)c1OC)-c1ccc(OC)c(=O)cc1[C@@H](NC(=O)NC(C)C)CC2`, for which the pIC50 in data set [1] was 6.72; in data set [2], 6.74; in data set [3], 6.54.
